According to patent US11667651B2, “Aminopyridine derivatives as phosphatidylinositol phosphate kinase inhibitors” (HiberCell, Inc., priority 2017, dated 2023):

Key:
Assay type in all cases: biochemical
[1] = biological target: T1, PIP4K2A (Homo sapiens, UniProt P48426); assay: ADP-glo kinase assay PIP4K 2A (Table 3); design: made in house; host or cells: E. coli; details: compounds listed under IC50 bins
T1 sequence (P48426 1-406): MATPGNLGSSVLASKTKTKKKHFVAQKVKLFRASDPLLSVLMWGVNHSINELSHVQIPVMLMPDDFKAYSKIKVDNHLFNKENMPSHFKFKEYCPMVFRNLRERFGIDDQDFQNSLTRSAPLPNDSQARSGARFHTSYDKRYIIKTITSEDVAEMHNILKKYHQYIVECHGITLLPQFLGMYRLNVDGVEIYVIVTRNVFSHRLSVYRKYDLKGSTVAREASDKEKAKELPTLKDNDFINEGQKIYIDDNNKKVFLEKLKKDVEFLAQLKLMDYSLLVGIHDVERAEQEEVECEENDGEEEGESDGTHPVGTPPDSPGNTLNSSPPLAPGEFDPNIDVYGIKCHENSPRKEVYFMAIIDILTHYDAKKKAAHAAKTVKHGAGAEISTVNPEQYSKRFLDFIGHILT
How it was run: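 ADP-Glo luminescence detected ADP after 1 h RT reaction started by ATP (60 μM solution) on full-length PIP4K2A (4 nM in mix) and PI(5)P diC8 (100 μM in mix), preceded by 15 min enzyme-compound preincubation in MOPS pH 7.2/25 mM MgCl2. Percent inhibition versus DMSO over 10 concentrations fitted for IC50.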

[2] = biological target: T1, PIP4K2A; assay: Kinase Assay PIP4K2 A (Table 2); design: 4 nM PIP4K2A (full length protein, SignalChem); purchased SignalChem; details: compounds listed under IC50 bins
How it was run: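 ADP-Glo luminescent read-out after 1 h room-temperature kinase reaction, started with 60 μM ATP solution following 15 min compound pre-incubation. Enzyme/substrate mix: 4 nM full-length PIP4K2A plus 100 μM PI(5)P diC8; buffer MOPS pH 7.2 with 25 mM MgCl2 and Tween 20. IC50 from 10-point, 3-fold titrations normalized to DMSO.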

[3] = biological target: T2, PIP4K2B (Homo sapiens, UniProt P78356); assay: Trans-FI P kinase assay PIP4K2B (Table 4); details: compounds listed under IC50 bins; read-out: Trans-FI P kinase assays: PIP4K2B IC50
T2 construct: made in house; host or cells: E. coli
T2 sequence (P78356 1-416): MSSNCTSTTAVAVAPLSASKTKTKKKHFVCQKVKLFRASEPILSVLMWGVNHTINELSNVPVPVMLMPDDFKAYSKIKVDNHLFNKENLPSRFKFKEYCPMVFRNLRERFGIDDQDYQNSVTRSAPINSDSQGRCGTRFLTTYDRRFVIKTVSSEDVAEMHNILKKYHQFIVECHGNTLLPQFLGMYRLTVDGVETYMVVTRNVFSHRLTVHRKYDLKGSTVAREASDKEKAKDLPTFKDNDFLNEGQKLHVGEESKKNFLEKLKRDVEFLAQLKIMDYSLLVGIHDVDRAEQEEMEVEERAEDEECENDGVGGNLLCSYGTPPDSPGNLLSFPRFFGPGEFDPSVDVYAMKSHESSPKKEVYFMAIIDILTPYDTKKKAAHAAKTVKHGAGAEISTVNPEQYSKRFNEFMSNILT
How it was run: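 Transcreener FI detection (Ex 584/Em 623) of GDP, converted via calibration curve, gives IC50 from residual activity versus log concentration (highest 4.8 μM). Reaction: 80 μM PI5P plus DOPE carrier, 100 μM GTP, 5 nM GST-tagged enzyme, pH 7.3 HEPES with MgCl2 and 5% DMSO, 2 h after 1 h enzyme-compound preincubation at 27° C.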

Row | Structure (SMILES) | IC50 [1] [nM] | IC50 [2] [nM] | IC50 [3] [nM]
1 | CN(C)C(=O)c1ccc(-c2ccc(Nc3cnc4c(c3)OCCO4)nc2)cc1 [Example 50, 4-(6-((2,3-dihydro-[1,4]dioxino[2,3-b]pyridin-7-yl)amino)pyridin-3-yl)-N,N-dimethylbenzamide] | 100 to 1000 | 10 to 100 | 10 to 100
2 | CC(O)C(=O)N1CCOc2ncc(Nc3ccc(-c4ccc(N5CCCC5=O)cc4)cn3)cc21 (stereo not shown) [Example 234, 1-(4-(6-((1-(2-hydroxypropanoyl)-2,3-dihydro-1H-pyrido[2,3-b][1,4]oxazin-7-yl)amino)pyridin-3-yl)phenyl)pyrrolidin-2-one] | 1 to 10 | 1 to 10 | 10 to 100
3 | O=C1CCCN1c1ccc(-c2ccc(Nc3cncc(N4CCN(Cc5cscn5)C4=O)c3)nc2)cc1 [Example 163, 1-(5-((5-(4-(2-oxopyrrolidin-1-yl)phenyl)pyridin-2-yl)amino)pyridin-3-yl)-3-(thiazol-4-ylmethyl)imidazolidin-2-one] | 1 to 10 | 1 to 10 | 10 to 100
4 | Cc1nc(Nc2cnc3c(c2)N2C(=O)CC[C@H]2CO3)ccc1-c1ccc(N2CCCC2=O)cc1 [Example 190, (S)-2-((6-methyl-5-(4-(2-oxopyrrolidin-1-yl)phenyl)pyridin-2-yl)amino)-6,6a,7,8-tetrahydro-9H-pyrido[2,3-b]pyrrolo[1,2-d][1,4]oxazin-9-one] | 10 to 100 | 1 to 10 | 10 to 100
5 | O=C1CCCN1c1ccc(-c2cnc(Nc3cnc4c(c3)N3C(=O)CC[C@H]3CO4)cn2)cc1 [Example 162, (S)-2-((5-(4-(2-oxopyrrolidin-1-yl)phenyl)pyrazin-2-yl)amino)-6,6a,7,8-tetrahydro-9H-pyrido[2,3-b]pyrrolo[1,2-d][1,4]oxazin-9-one] | 10 to 100 | 10 to 100 | 10 to 100
6 | Cc1cc(N2CCCC2=O)ccc1-c1ccc(Nc2cnc3c(c2)N2C(=O)CC[C@H]2CO3)nc1 [Example 192, (S)-2-((5-(2-methyl-4-(2-oxopyrrolidin-1-yl)phenyl)pyridin-2-yl)amino)-6,6a,7,8-tetrahydro-9H-pyrido[2,3-b]pyrrolo[1,2-d][1,4]oxazin-9-one] | 10 to 100 | 10 to 100 | 10 to 100
7 | CN(C)C/C=C/C(=O)Nc1cccc(CCC(=O)Nc2ccc(CN3CCN(c4cncc(Nc5ccc(-c6ccc(C(=O)N(C)C)cc6)cn5)c4)C3=O)cc2)c1 [Example 231, (E)-4-(6-((5-(3-(4-(3-(3-(4-(dimethylamino)-but-2-enamido)phenyl)propanamido)benzyl)-2-oxoimidazolidin-1-yl)pyridin-3-yl)amino)pyridin-3-yl)-N,N-dimethylbenzamide] | 1 to 10 | 1 to 10 | 10 to 100
8 | O=C1CCCN1c1ccc(-c2ccc(Nc3cnc4c(c3)N(C(=O)C3(O)CC3)CCO4)nc2)cc1 [Example 233, 1-(4-(6-((1-(1-hydroxycyclopropane-1-carbonyl)-2,3-dihydro-1H-pyrido[2,3-b][1,4]oxazin-7-yl)amino)pyridin-3-yl)phenyl)pyrrolidin-2-one] | 1 to 10 | 1 to 10 | 10 to 100
9 | CN(C)C(=O)c1ccc(-c2ccc(Nc3cnc4c(c3)N(C(=O)c3ccccc3)CCO4)nc2)cc1 [Example 94, 4-(6-((1-benzoyl-2,3-dihydro-1H-pyrido[2,3-b][1,4]oxazin-7-yl)amino)pyridin-3-yl)-N,N-dimethylbenzamide] | 10 to 100 | 1 to 10 | 10 to 100
10 | CN(C)C(=O)c1ccc(-c2ccc(Nc3cncc(NC(=O)c4ccc5c(c4)B(O)OC5)c3)nc2)cc1 [Example 133, N-(5-((5-(4-(dimethylcarbamoyl)phenyl)pyridin-2-yl)amino)pyridin-3-yl)-1-hydroxy-1,3-dihydrobenzo[c][1,2]oxaborole-6-carboxamide] | 10 to 100 | 10 to 100 | 10 to 100
11 | CN(C)C(=O)c1ccc(-c2ccc(Nc3cncc(NC(=O)CCc4ccccc4)c3)nc2)cc1 [Example 137, N,N-dimethyl-4-(6-((5-(3-phenylpropanamido)pyridin-3-yl)amino)pyridin-3-yl)benzamide] | 10 to 100 | 10 to 100 | 10 to 100
12 | CN(C)C/C=C/C(=O)NCC(=O)Nc1cccc(CCC(=O)Nc2cncc(Nc3ccc(-c4ccc(C(=O)N(C)C)cc4)cn3)c2)c1 [Example 108, (E)-4-(6-((5-(3-(3-(2-(4-(dimethylamino)but-2-enamido)acetamido)phenyl)propanamido)pyridin-3-yl)amino)pyridin-3-yl)-N,N-dimethylbenzamide] | 100 to 1000 | 100 to 1000 | > 1000
13 | CN(C)C(=O)c1ccc(-c2ccc(Nc3cnc4c(c3)N(C(=O)OC(C)(C)C)CCO4)nc2)cc1 [Example 45, tert-butyl 7-((5-(4-(dimethylcarbamoyl)phenyl)pyridin-2-yl)amino)-2,3-dihydro-1H-pyrido[2,3-b][1,4]oxazine-1-carboxylate] | 100 to 1000 | 10 to 100 | 10 to 100
14 | CN(C)C/C=C/C(=O)NCC(=O)Nc1ccc(CN2CCN(c3cncc(Nc4ccc(-c5ccc(C(=O)N(C)C)cc5)cn4)c3)C2=O)cc1 [Example 229, (E)-4-(6-((5-(3-(4-(2-(4-(dimethylamino)but-2-enamido)acetamido)benzyl)-2-oxoimidazolidin-1-yl)pyridin-3-yl)amino)pyridin-3-yl)-N,N-dimethylbenzamide] | > 1000 | > 1000 | > 1000
15 | CN(Cc1cncs1)C(=O)c1ccc(-c2ccc(Nc3cccnc3)nc2)cc1 [Example 71, N-methyl-4-(6-(pyridin-3-ylamino)pyridin-3-yl)-N-(thiazol-5-ylmethyl)benzamide] | > 1000 | > 1000 | > 1000
16 | CN(c1cncc(Nc2ccc(-c3ccc(N4CCCC4=O)cc3)cn2)c1)S(C)(=O)=O [Example 157, N-methyl-N-(5-((5-(4-(2-oxopyrrolidin-1-yl)phenyl)pyridin-2-yl)amino)pyridin-3-yl)methanesulfonamide] | 10 to 100 | 10 to 100 | 10 to 100
17 | O=C1CCCN1c1ccc(-c2ccc(Nc3cncc(N4CCN(Cc5cocn5)C4=O)c3)nc2)cc1 [Example 165, 1-(oxazol-4-ylmethyl)-3-(5-((5-(4-(2-oxopyrrolidin-1-yl)phenyl)pyridin-2-yl)amino)pyridin-3-yl)imidazolidin-2-one] | 10 to 100 | 10 to 100 | 10 to 100
18 | Cc1nc2ncc(Nc3ccc(-c4ccc(C(=O)N(C)C)cc4)cn3)cc2o1 [Example 61, N,N-dimethyl-4-(6-((2-methyloxazolo[4,5-b]pyridin-6-yl)amino)pyridin-3-yl)benzamide] | 100 to 1000 | 100 to 1000 | > 1000
19 | COc1cc(C(=O)Nc2cncc(Nc3ccc(-c4ccc(N5CCCC5=O)cc4)cn3)c2)c2[nH]cnc2c1 [Example 253, 5-methoxy-N-(5-((5-(4-(2-oxopyrrolidin-1-yl)phenyl)pyridin-2-yl)amino)pyridin-3-yl)-1H-benzo[d]imidazole-7-carboxamide] | 10 to 100 | – | 10 to 100
20 | Cc1cc(N2CCCC2=O)ccc1-c1ccc(Nc2cnc3c(c2)N2C(=O)C4(CC4)C[C@H]2CO3)nc1 [Example 208, (S)-2′-((5-(2-methyl-4-(2-oxopyrrolidin-1-yl)phenyl)pyridin-2-yl)amino)-6a′,7′-dihydro-6′H,9′H-spiro[cyclopropane-1,8′-pyrido[2,3-b]pyrrolo[1,2-d][1,4]oxazin]-9′-one] | 10 to 100 | – | 10 to 100
